In the NIST ThermoML archive (doi:10.1016/j.fluid.2017.09.014):

Test: xn = mol fraction of the nth substance listed
Settings: Vibrating tube method

O=S=O [sulfur dioxide] + O=C=O
Settings | mass density [kg/m3]
283.32 K, 5506 kPa, Liquid, x2 = 0.9503 | 916.4
283.32 K, 6002 kPa, Liquid, x2 = 0.9503 | 920.8
283.32 K, 6507 kPa, Liquid, x2 = 0.9503 | 925.6
283.32 K, 7000 kPa, Liquid, x2 = 0.9503 | 929.5
283.32 K, 7506 kPa, Liquid, x2 = 0.9503 | 934.7
283.32 K, 8008 kPa, Liquid, x2 = 0.9503 | 938.7
283.32 K, 9510 kPa, Liquid, x2 = 0.9503 | 949.7
283.32 K, 9995 kPa, Liquid, x2 = 0.9503 | 953.3
283.32 K, 10507 kPa, Liquid, x2 = 0.9503 | 956.6
283.32 K, 11007 kPa, Liquid, x2 = 0.9503 | 959.9
283.32 K, 12009 kPa, Liquid, x2 = 0.9503 | 966.2
283.32 K, 12514 kPa, Liquid, x2 = 0.9503 | 969.7
283.32 K, 13000 kPa, Liquid, x2 = 0.9503 | 972.6
283.32 K, 13536 kPa, Liquid, x2 = 0.9503 | 975.3
283.32 K, 14496 kPa, Liquid, x2 = 0.9503 | 980.8
283.32 K, 15011 kPa, Liquid, x2 = 0.9503 | 984.1
283.32 K, 15505 kPa, Liquid, x2 = 0.9503 | 986.8
283.32 K, 16044 kPa, Liquid, x2 = 0.9503 | 989.5
283.32 K, 16561 kPa, Liquid, x2 = 0.9503 | 992.4
283.32 K, 17047 kPa, Liquid, x2 = 0.9503 | 994.7
283.32 K, 17551 kPa, Liquid, x2 = 0.9503 | 996.8
283.32 K, 18520 kPa, Liquid, x2 = 0.9503 | 1001.7
283.32 K, 19016 kPa, Liquid, x2 = 0.9503 | 1004.1
283.32 K, 19496 kPa, Liquid, x2 = 0.9503 | 1006.2
283.32 K, 20038 kPa, Liquid, x2 = 0.9503 | 1008.7
283.32 K, 20507 kPa, Liquid, x2 = 0.9503 | 1011
283.32 K, 21035 kPa, Liquid, x2 = 0.9503 | 1013.2
283.32 K, 21504 kPa, Liquid, x2 = 0.9503 | 1015.3
283.32 K, 22046 kPa, Liquid, x2 = 0.9503 | 1017.6
283.32 K, 22565 kPa, Liquid, x2 = 0.9503 | 1019.8
283.32 K, 23052 kPa, Liquid, x2 = 0.9503 | 1021.8
283.32 K, 23509 kPa, Liquid, x2 = 0.9503 | 1023.3
283.32 K, 24535 kPa, Liquid, x2 = 0.9503 | 1027.4
283.32 K, 25025 kPa, Liquid, x2 = 0.9503 | 1029.4
283.32 K, 25509 kPa, Liquid, x2 = 0.9503 | 1031.3
283.32 K, 26038 kPa, Liquid, x2 = 0.9503 | 1033.5
283.32 K, 26503 kPa, Liquid, x2 = 0.9503 | 1034.9
283.32 K, 27023 kPa, Liquid, x2 = 0.9503 | 1037
283.32 K, 28043 kPa, Liquid, x2 = 0.9503 | 1040.7
283.32 K, 28527 kPa, Liquid, x2 = 0.9503 | 1042.4
283.32 K, 29081 kPa, Liquid, x2 = 0.9503 | 1044.1
283.32 K, 29470 kPa, Liquid, x2 = 0.9503 | 1045.7
283.32 K, 30008 kPa, Liquid, x2 = 0.9503 | 1047.3
283.32 K, 30506 kPa, Liquid, x2 = 0.9503 | 1049.6
283.32 K, 31007 kPa, Liquid, x2 = 0.9503 | 1050.9
283.32 K, 31500 kPa, Liquid, x2 = 0.9503 | 1052.8
283.32 K, 32033 kPa, Liquid, x2 = 0.9503 | 1054.6
283.32 K, 32516 kPa, Liquid, x2 = 0.9503 | 1056.2
283.32 K, 33032 kPa, Liquid, x2 = 0.9503 | 1057.9
283.32 K, 33527 kPa, Liquid, x2 = 0.9503 | 1059.6
283.32 K, 33995 kPa, Liquid, x2 = 0.9503 | 1060.8
283.32 K, 34989 kPa, Liquid, x2 = 0.9503 | 1064.3
283.32 K, 37026 kPa, Liquid, x2 = 0.9503 | 1070.5
283.32 K, 38461 kPa, Liquid, x2 = 0.9503 | 1074.6
283.32 K, 39056 kPa, Liquid, x2 = 0.9503 | 1076.1
283.32 K, 39558 kPa, Liquid, x2 = 0.9503 | 1077.4
283.32 K, 40729 kPa, Liquid, x2 = 0.9503 | 1080.4
283.33 K, 4307 kPa, Liquid, x2 = 0.9503 | 902.3
283.33 K, 4499 kPa, Liquid, x2 = 0.9503 | 904.4
283.33 K, 8543 kPa, Liquid, x2 = 0.9503 | 942.8
283.33 K, 9019 kPa, Liquid, x2 = 0.9503 | 946.2
283.33 K, 11512 kPa, Liquid, x2 = 0.9503 | 963
283.33 K, 14003 kPa, Liquid, x2 = 0.9503 | 978.2
283.33 K, 18078 kPa, Liquid, x2 = 0.9503 | 999.5
283.33 K, 24074 kPa, Liquid, x2 = 0.9503 | 1025.3
283.33 K, 40145 kPa, Liquid, x2 = 0.9503 | 1078.8
283.33 K, 40601 kPa, Liquid, x2 = 0.9503 | 1080.3
283.33 K, 40700 kPa, Liquid, x2 = 0.9503 | 1080.6
297.4 K, 4803 kPa, Gas, x2 = 0.9478 | 134.4
297.41 K, 100 kPa, Gas, x2 = 0.9478 | 1.8
297.41 K, 200 kPa, Gas, x2 = 0.9478 | 3.6
297.41 K, 2012 kPa, Gas, x2 = 0.9478 | 42.1
297.41 K, 2215 kPa, Gas, x2 = 0.9478 | 47.2
297.42 K, 51 kPa, Gas, x2 = 0.9478 | 1
297.42 K, 397 kPa, Gas, x2 = 0.9478 | 7.5
297.42 K, 502 kPa, Gas, x2 = 0.9478 | 9.4
297.42 K, 1817 kPa, Gas, x2 = 0.9478 | 37.6
297.42 K, 2421 kPa, Gas, x2 = 0.9478 | 53
297.42 K, 2588 kPa, Gas, x2 = 0.9478 | 57
297.42 K, 2854 kPa, Gas, x2 = 0.9478 | 64.1
297.42 K, 3638 kPa, Gas, x2 = 0.9478 | 87.4
297.42 K, 3822 kPa, Gas, x2 = 0.9478 | 93.7
297.42 K, 3996 kPa, Gas, x2 = 0.9478 | 99.9
297.42 K, 4401 kPa, Gas, x2 = 0.9478 | 115.6
297.42 K, 4507 kPa, Gas, x2 = 0.9478 | 120.1
297.42 K, 4600 kPa, Gas, x2 = 0.9478 | 124.4
297.42 K, 4703 kPa, Gas, x2 = 0.9478 | 129.2
297.43 K, 3223 kPa, Gas, x2 = 0.9478 | 74.6
297.43 K, 3396 kPa, Gas, x2 = 0.9478 | 79.8
297.43 K, 4206 kPa, Gas, x2 = 0.9478 | 107.7
297.44 K, 3064 kPa, Gas, x2 = 0.9478 | 70.1
298.09 K, 26076 kPa, Liquid, x2 = 0.9478 | 980
298.09 K, 26503 kPa, Liquid, x2 = 0.9478 | 982.1
298.1 K, 7001 kPa, Liquid, x2 = 0.9478 | 819.7
298.1 K, 9007 kPa, Liquid, x2 = 0.9478 | 854
298.1 K, 21016 kPa, Liquid, x2 = 0.9478 | 954.5
298.1 K, 21994 kPa, Liquid, x2 = 0.9478 | 959.8
298.1 K, 22537 kPa, Liquid, x2 = 0.9478 | 962.6
298.1 K, 23522 kPa, Liquid, x2 = 0.9478 | 967.7
298.1 K, 24029 kPa, Liquid, x2 = 0.9478 | 970.2
298.1 K, 24505 kPa, Liquid, x2 = 0.9478 | 972.6
298.1 K, 25050 kPa, Liquid, x2 = 0.9478 | 975.1
298.1 K, 25593 kPa, Liquid, x2 = 0.9478 | 977.9
298.1 K, 27025 kPa, Liquid, x2 = 0.9478 | 984.3
298.1 K, 27508 kPa, Liquid, x2 = 0.9478 | 986.6
298.1 K, 27973 kPa, Liquid, x2 = 0.9478 | 988.6
298.1 K, 28400 kPa, Liquid, x2 = 0.9478 | 990.6
298.1 K, 32016 kPa, Liquid, x2 = 0.9478 | 1004.6
298.1 K, 32518 kPa, Liquid, x2 = 0.9478 | 1006.5
298.1 K, 33068 kPa, Liquid, x2 = 0.9478 | 1008.6
298.1 K, 33435 kPa, Liquid, x2 = 0.9478 | 1009.8
